Reference: ChEMBL document CHEMBL3868618, “Synthesis and biological evaluation of chalcone derivatives containing aminoguanidine or acylhydrazone moieties” (Bioorg Med Chem Lett, 2016)
In brackets after ≈: the same amount, converted by molar mass.

Tests used:
[1] = system: Escherichia coli; experiment: Antibacterial activity against Escherichia coli 1924 measured after 24 hrs by two-fold serial dilution method; type: functional; settings: Escherichia coli, 1924, 24 h
[2] = system: Staphylococcus aureus; experiment: Antibacterial activity against Staphylococcus aureus 503 measured after 24 hrs by two-fold serial dilution method; type: functional; settings: Staphylococcus aureus, 503, 24 h
[3] = system: Candida albicans; experiment: Antifungal activity against Candida albicans 7535 measured after 24 hrs by two-fold serial dilution method; type: functional; settings: Candida albicans, 7535, 24 h
[4] = system: Staphylococcus aureus; experiment: Antibacterial activity against methicillin-resistant Staphylococcus aureus 3506 measured after 24 hrs by two-fold serial dilution method; type: functional; settings: Staphylococcus aureus, 3506, 24 h
[5] = system: Staphylococcus aureus; experiment: Antibacterial activity against Staphylococcus aureus 4220 measured after 24 hrs by two-fold serial dilution method; type: functional; settings: Staphylococcus aureus, 4220, 24 h
[6] = system: Escherichia coli; experiment: Antibacterial activity against Escherichia coli 1356 measured after 24 hrs by two-fold serial dilution method; type: functional; settings: Escherichia coli, 1356, 24 h
[7] = system: Salmonella typhimurium; experiment: Antibacterial activity against Salmonella typhimurium 1926 measured after 24 hrs by two-fold serial dilution method; type: functional, Salmonella enterica subsp. enterica serovar Typhimurium; settings: Salmonella enterica, 1926, 24 h
[8] = system: Pseudomonas aeruginosa; experiment: Antibacterial activity against Pseudomonas aeruginosa 2742 measured after 24 hrs by two-fold serial dilution method; type: functional; settings: Pseudomonas aeruginosa, 2742, 24 h
[9] = system: Staphylococcus aureus; experiment: Antibacterial activity against quinolone-resistant Staphylococcus aureus 3505 measured after 24 hrs by two-fold serial dilution method; type: functional; settings: Staphylococcus aureus, 3505, 24 h
[10] = system: Staphylococcus aureus; experiment: Antibacterial activity against Staphylococcus aureus 209 measured after 24 hrs by two-fold serial dilution method; type: functional; settings: Staphylococcus aureus, 209, 24 h
[11] = system: Staphylococcus aureus; experiment: Antibacterial activity against methicillin-resistant Staphylococcus aureus 3167 measured after 24 hrs by two-fold serial dilution method; type: functional; settings: Staphylococcus aureus, 3167, 24 h
[12] = system: Staphylococcus aureus; experiment: Antibacterial activity against quinolone-resistant Staphylococcus aureus 3519 measured after 24 hrs by two-fold serial dilution method; type: functional; settings: Staphylococcus aureus, 3519, 24 h
[13] = system: Streptococcus mutans; experiment: Antibacterial activity against Streptococcus mutans 3065 measured after 24 hrs by two-fold serial dilution method; type: functional; settings: Streptococcus mutans, 3065, 24 h
[14] = system: Mus musculus; experiment: Antiinflammatory activity in mouse assessed as inhibition of xylene-induced ear edema at 100 mg/kg, ip administered 30 mins before xylene challenge measured after 30 mins relative to DMSO-control; type: functional

O=C(N/N=C/c1ccc(/C=C/C(=O)c2ccccc2Cl)cc1)c1ccccc1 gave an MIC [1] of over 64 µg/mL, an MIC [2] of 64 µg/mL (≈ 165 µM) and an MIC [3] of over 64 µg/mL. It also gave an MIC [4] of 64 µg/mL (≈ 165 µM), an MIC [5] of over 64 µg/mL and an MIC [6] of over 64 µg/mL. The MIC [7] was over 64 µg/mL, the MIC [8] was over 64 µg/mL and the MIC [9] was 64 µg/mL (≈ 165 µM). It also gave an MIC [10] of 64 µg/mL (≈ 165 µM), an MIC [11] of 64 µg/mL (≈ 165 µM) and an MIC [12] of 64 µg/mL (≈ 165 µM). It also gave an MIC [13] of over 64 µg/mL.
Work on Cc1ccc(C(=O)/C=C/c2ccc(/C=N/NC(=N)N)cc2)c(C)c1 yielded an MIC [1] of 8 µg/mL (≈ 25 µM), an MIC [2] of 8 µg/mL (≈ 25 µM) and an MIC [3] of 8 µg/mL (≈ 25 µM). For the same compound, the MIC [4] was 4 µg/mL (≈ 12.5 µM), the MIC [5] was 4 µg/mL (≈ 12.5 µM) and the MIC [6] was 8 µg/mL (≈ 25 µM). It also gave an MIC [7] of 8 µg/mL (≈ 25 µM), an MIC [8] of 4 µg/mL (≈ 12.5 µM) and an inhibition in vivo at 100 mg/kg [14] of 64.2%. For the same compound, the MIC [9] was 8 µg/mL (≈ 25 µM), the MIC [10] was 8 µg/mL (≈ 25 µM) and the MIC [11] was 8 µg/mL (≈ 25 µM). For the same compound, the MIC [12] was 8 µg/mL (≈ 25 µM) and the MIC [13] was 8 µg/mL (≈ 25 µM).
Compound O=C(N/N=C/c1ccc(/C=C/C(=O)c2ccccc2F)cc1)c1ccccc1 has an MIC [1] of over 64 µg/mL, an MIC [2] of over 64 µg/mL and an MIC [3] of over 64 µg/mL. For the same compound, the MIC [4] was 64 µg/mL (≈ 172 µM), the MIC [5] was over 64 µg/mL and the MIC [6] was over 64 µg/mL. For the same compound, the MIC [7] was over 64 µg/mL, the MIC [8] was over 64 µg/mL and the MIC [9] was over 64 µg/mL. It also gave an MIC [10] of over 64 µg/mL, an MIC [11] of 64 µg/mL (≈ 172 µM) and an MIC [12] of over 64 µg/mL. For the same compound, the MIC [13] was over 64 µg/mL.
For O=C(/C=C/c1ccc(/C=N/NC(=O)c2cccc(Cl)c2)cc1)c1ccc(Cl)cc1, the MIC [1] was 32 µg/mL (≈ 75.6 µM), the MIC [2] was 32 µg/mL (≈ 75.6 µM) and the MIC [3] was over 64 µg/mL. It also gave an MIC [4] of 32 µg/mL (≈ 75.6 µM), an MIC [5] of 32 µg/mL (≈ 75.6 µM) and an MIC [6] of 32 µg/mL (≈ 75.6 µM). The MIC [7] was over 64 µg/mL, the MIC [8] was over 64 µg/mL and the MIC [9] was 32 µg/mL (≈ 75.6 µM). For the same compound, the MIC [10] was 32 µg/mL (≈ 75.6 µM), the MIC [11] was 32 µg/mL (≈ 75.6 µM) and the MIC [12] was 32 µg/mL (≈ 75.6 µM). It also gave an MIC [13] of over 64 µg/mL.
N=C(N)N/N=C/c1ccc(/C=C/C(=O)c2ccccc2Br)cc1 showed an MIC [1] of 8 µg/mL (≈ 21.5 µM), an MIC [2] of 8 µg/mL (≈ 21.5 µM) and an MIC [3] of 8 µg/mL (≈ 21.5 µM). For the same compound, the MIC [4] was 8 µg/mL (≈ 21.5 µM), the MIC [5] was 4 µg/mL (≈ 10.8 µM) and the MIC [6] was 16 µg/mL (≈ 43.1 µM). For the same compound, the MIC [7] was 4 µg/mL (≈ 10.8 µM), the MIC [8] was 8 µg/mL (≈ 21.5 µM) and the inhibition in vivo at 100 mg/kg [14] was 78.3%. The MIC [9] was 8 µg/mL (≈ 21.5 µM), the MIC [10] was 8 µg/mL (≈ 21.5 µM) and the MIC [11] was 8 µg/mL (≈ 21.5 µM). For the same compound, the MIC [12] was 16 µg/mL (≈ 43.1 µM) and the MIC [13] was 8 µg/mL (≈ 21.5 µM).
O=C(N/N=C/c1ccc(/C=C/C(=O)c2ccccc2Br)cc1)c1ccccc1 showed an MIC [1] of over 64 µg/mL, an MIC [2] of over 64 µg/mL and an MIC [3] of over 64 µg/mL. For the same compound, the MIC [4] was over 64 µg/mL, the MIC [5] was over 64 µg/mL and the MIC [6] was over 64 µg/mL. It also gave an MIC [7] of over 64 µg/mL, an MIC [8] of over 64 µg/mL and an MIC [9] of over 64 µg/mL. For the same compound, the MIC [10] was over 64 µg/mL, the MIC [11] was over 64 µg/mL and the MIC [12] was over 64 µg/mL. The MIC [13] was over 64 µg/mL.
In the case of O=C(/C=C/c1ccc(/C=N/NC(=O)c2cccc(Cl)c2)cc1)c1cccc(Cl)c1, the MIC [1] is reported as 32 µg/mL (≈ 75.6 µM), the MIC [2] is reported as 32 µg/mL (≈ 75.6 µM) and the MIC [3] is reported as over 64 µg/mL. It also gave an MIC [4] of 32 µg/mL (≈ 75.6 µM), an MIC [5] of 32 µg/mL (≈ 75.6 µM) and an MIC [6] of 32 µg/mL (≈ 75.6 µM). The MIC [7] was over 64 µg/mL, the MIC [8] was over 64 µg/mL and the MIC [9] was 32 µg/mL (≈ 75.6 µM). For the same compound, the MIC [10] was 32 µg/mL (≈ 75.6 µM), the MIC [11] was 32 µg/mL (≈ 75.6 µM) and the MIC [12] was 32 µg/mL (≈ 75.6 µM). The MIC [13] was over 64 µg/mL.
OC(Cn1cncn1)(Cn1cncn1)c1ccc(F)cc1F [FLUCONAZOLE] gave an MIC [3] of 1 µg/mL (≈ 3.27 µM).
Compound COc1c(N2CCNC(C)C2)c(F)cc2c(=O)c(C(=O)O)cn(C3CC3)c12 (stereo not given) [GATIFLOXACIN] has an MIC [1] of 2 µg/mL (≈ 5.33 µM), an MIC [2] of 4 µg/mL (≈ 10.7 µM) and an MIC [4] of 2 µg/mL (≈ 5.33 µM). It also gave an MIC [5] of 0.25 µg/mL (≈ 0.666 µM), an MIC [6] of 16 µg/mL (≈ 42.6 µM) and an MIC [7] of 2 µg/mL (≈ 5.33 µM). The MIC [8] was 1 µg/mL (≈ 2.66 µM), the MIC [9] was 8 µg/mL (≈ 21.3 µM) and the MIC [10] was 2 µg/mL (≈ 5.33 µM). For the same compound, the MIC [11] was 2 µg/mL (≈ 5.33 µM), the MIC [12] was 4 µg/mL (≈ 10.7 µM) and the MIC [13] was 0.5 µg/mL (≈ 1.33 µM).
For CC(C)Cc1ccc(C(C)C(=O)O)cc1 (stereo not given) [IBUPROFEN], the inhibition in vivo at 100 mg/kg [14] was 87.4%.
COc1c(N2C[C@@H]3CCCN[C@@H]3C2)c(F)cc2c(=O)c(C(=O)O)cn(C3CC3)c12 [MOXIFLOXACIN] showed an MIC [2] of 2 µg/mL (≈ 4.98 µM), an MIC [5] of 0.25 µg/mL (≈ 0.623 µM) and an MIC [6] of 128 µg/mL (≈ 319 µM). The MIC [7] was 1 µg/mL (≈ 2.49 µM) and the MIC [13] was 0.25 µg/mL (≈ 0.623 µM).
CCn1cc(C(=O)O)c(=O)c2cc(F)c(N3CCNCC3)cc21 [NORFLOXACIN] was tested, and the MIC [4] was 4 µg/mL (≈ 12.5 µM), the MIC [9] was over 64 µg/mL and the MIC [11] was 8 µg/mL (≈ 25.1 µM). For the same compound, the MIC [12] was over 64 µg/mL.
Work on Cc1onc(-c2ccccc2)c1C(=O)N[C@@H]1C(=O)N2[C@@H]1SC(C)(C)[C@@H]2C(=O)O [OXACILLIN] yielded an MIC [4] of over 64 µg/mL, an MIC [9] of 1 µg/mL (≈ 2.49 µM) and an MIC [11] of over 64 µg/mL. For the same compound, the MIC [12] was 1 µg/mL (≈ 2.49 µM).
